# Measured values as given in patent publication US8192962B2, “Processes for detecting toxic substances” (Daikin Industries, Ltd., priority 2001, dated 2012).
# Test system: Metabolism protein genes
# Assay: DNA chip mRNA expression in yeast, metabolism protein genes (Table 7)
# Type: cell-based, Saccharomyces cerevisiae S288C
# Outline: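 Ratios compare mRNA levels in stressed and control S. cerevisiae. Each toxicant was applied for two hours to log-phase cultures at 25° C. at a sub-lethal, growth-inhibiting level; fluorescent cDNA (Cy3- or Cy5-dUTP) was hybridized to a genome-wide yeast chip for over 12 h at 65° C.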
smiles,measurement,setting,value
"S=C([S-])NCCNC(=S)[S-].[Zn+2] [(11), zinc N,N′-ethylenebis(dithiocarbamate)]",The level of expressed mRNA in the presence of chemical substance/The level of expressed mRNA in the absence of chemical substance,yeast gene YJR155W,15.4
same,The level of expressed mRNA in the presence of chemical substance/The level of expressed mRNA in the absence of chemical substance,yeast gene YKL035W,2.1
same,level of expressed mRNA in the presence/in the absence of chemical substance,yeast gene YKL060C,2.1
same,The level of expressed mRNA in the presence of chemical substance/The level of expressed mRNA in the absence of chemical substance,yeast gene YKL091C,1.7
same,The level of expressed mRNA in the presence of chemical substance/The level of expressed mRNA in the absence of chemical substance,yeast gene YKL104C,2.2
same,level of expressed mRNA in the presence/in the absence of chemical substance,yeast gene YKL148C,1.5
same,The level of expressed mRNA in the presence of chemical substance/The level of expressed mRNA in the absence of chemical substance,yeast gene YKL152C,1.7
same,level of expressed mRNA in the presence/in the absence of chemical substance,yeast gene YKL157W,1.5
same,The level of expressed mRNA in the presence of chemical substance/The level of expressed mRNA in the absence of chemical substance,yeast gene YKL213C,1.3
same,The level of expressed mRNA in the presence of chemical substance/The level of expressed mRNA in the absence of chemical substance,yeast gene YKL215C,0.5
same,The level of expressed mRNA in the presence of chemical substance/The level of expressed mRNA in the absence of chemical substance,yeast gene YKR039W,1.9
same,The level of expressed mRNA in the presence of chemical substance/The level of expressed mRNA in the absence of chemical substance,yeast gene YLL058W,2.0
same,level of expressed mRNA in the presence/in the absence of chemical substance,yeast gene YLR006C,1.5
same,level of expressed mRNA in the presence/in the absence of chemical substance,yeast gene YLR044C,1.1
same,level of expressed mRNA in the presence/in the absence of chemical substance,yeast gene YLR056W,0.8
same,level of expressed mRNA in the presence/in the absence of chemical substance,yeast gene YLR058C,2.6
same,level of expressed mRNA in the presence/in the absence of chemical substance,yeast gene YLR081W,2.6
same,level of expressed mRNA in the presence/in the absence of chemical substance,yeast gene YLR089C,1.7
same,The level of expressed mRNA in the presence of chemical substance/The level of expressed mRNA in the absence of chemical substance,yeast gene YLR180W,1.7
same,The level of expressed mRNA in the presence of chemical substance/The level of expressed mRNA in the absence of chemical substance,yeast gene YLR273C,1.4
same,level of expressed mRNA in the presence/in the absence of chemical substance,yeast gene YLR284C,1.5
same,The level of expressed mRNA in the presence of chemical substance/The level of expressed mRNA in the absence of chemical substance,yeast gene YLR299W,1.7
same,The level of expressed mRNA in the presence of chemical substance/The level of expressed mRNA in the absence of chemical substance,yeast gene YLR300W,1.0
same,level of expressed mRNA in the presence/in the absence of chemical substance,yeast gene YLR304C,1.6
same,The level of expressed mRNA in the presence of chemical substance/The level of expressed mRNA in the absence of chemical substance,yeast gene YLR307W,0.8
same,The level of expressed mRNA in the presence of chemical substance/The level of expressed mRNA in the absence of chemical substance,yeast gene YLR348C,1.3
same,level of expressed mRNA in the presence/in the absence of chemical substance,yeast gene YLR354C,1.7
same,level of expressed mRNA in the presence/in the absence of chemical substance,yeast gene YLR372W,0.9
same,level of expressed mRNA in the presence/in the absence of chemical substance,yeast gene YML022W,1.2
same,The level of expressed mRNA in the presence of chemical substance/The level of expressed mRNA in the absence of chemical substance,yeast gene YML054C,1.4
same,The level of expressed mRNA in the presence of chemical substance/The level of expressed mRNA in the absence of chemical substance,yeast gene YML058W,3.3
same,The level of expressed mRNA in the presence of chemical substance/The level of expressed mRNA in the absence of chemical substance,yeast gene YML070W,1.5
same,The level of expressed mRNA in the presence of chemical substance/The level of expressed mRNA in the absence of chemical substance,yeast gene YML100W,3.2
same,The level of expressed mRNA in the presence of chemical substance/The level of expressed mRNA in the absence of chemical substance,yeast gene YMR008C,1.3
same,level of expressed mRNA in the presence/in the absence of chemical substance,yeast gene YMR011W,1.5
same,level of expressed mRNA in the presence/in the absence of chemical substance,yeast gene YMR015C,1.0
same,The level of expressed mRNA in the presence of chemical substance/The level of expressed mRNA in the absence of chemical substance,yeast gene YMR020W,1.5
same,level of expressed mRNA in the presence/in the absence of chemical substance,yeast gene YMR083W,1.6
same,The level of expressed mRNA in the presence of chemical substance/The level of expressed mRNA in the absence of chemical substance,yeast gene YMR105C,3.0
same,The level of expressed mRNA in the presence of chemical substance/The level of expressed mRNA in the absence of chemical substance,yeast gene YMR189W,8.2
same,level of expressed mRNA in the presence/in the absence of chemical substance,yeast gene YMR205C,1.0
same,level of expressed mRNA in the presence/in the absence of chemical substance,yeast gene YMR261C,0.8
same,The level of expressed mRNA in the presence of chemical substance/The level of expressed mRNA in the absence of chemical substance,yeast gene YMR271C,1.7
same,The level of expressed mRNA in the presence of chemical substance/The level of expressed mRNA in the absence of chemical substance,yeast gene YMR296C,0.8
same,level of expressed mRNA in the presence/in the absence of chemical substance,yeast gene YMR323W,2.5
same,The level of expressed mRNA in the presence of chemical substance/The level of expressed mRNA in the absence of chemical substance,yeast gene YNL012W,1.6
same,level of expressed mRNA in the presence/in the absence of chemical substance,yeast gene YNL025C,1.1
same,The level of expressed mRNA in the presence of chemical substance/The level of expressed mRNA in the absence of chemical substance,yeast gene YNL045W,2.1
same,The level of expressed mRNA in the presence of chemical substance/The level of expressed mRNA in the absence of chemical substance,yeast gene YNL104C,2.1
same,The level of expressed mRNA in the presence of chemical substance/The level of expressed mRNA in the absence of chemical substance,yeast gene YNL106C,0.9
same,The level of expressed mRNA in the presence of chemical substance/The level of expressed mRNA in the absence of chemical substance,yeast gene YNL169C,0.8
same,level of expressed mRNA in the presence/in the absence of chemical substance,yeast gene YNL192W,1.1
same,The level of expressed mRNA in the presence of chemical substance/The level of expressed mRNA in the absence of chemical substance,yeast gene YNL231C,1.3
same,The level of expressed mRNA in the presence of chemical substance/The level of expressed mRNA in the absence of chemical substance,yeast gene YNL322C,0.6
same,The level of expressed mRNA in the presence of chemical substance/The level of expressed mRNA in the absence of chemical substance,yeast gene YNL331C,21.8
same,The level of expressed mRNA in the presence of chemical substance/The level of expressed mRNA in the absence of chemical substance,yeast gene YNL332W,2.6
same,The level of expressed mRNA in the presence of chemical substance/The level of expressed mRNA in the absence of chemical substance,yeast gene YNR019W,0.7
same,The level of expressed mRNA in the presence of chemical substance/The level of expressed mRNA in the absence of chemical substance,yeast gene YNR033W,0.4
same,The level of expressed mRNA in the presence of chemical substance/The level of expressed mRNA in the absence of chemical substance,yeast gene YNR059W,1.0
same,The level of expressed mRNA in the presence of chemical substance/The level of expressed mRNA in the absence of chemical substance,yeast gene YOL058W,2.3
same,level of expressed mRNA in the presence/in the absence of chemical substance,yeast gene YOL086C,2.6
same,level of expressed mRNA in the presence/in the absence of chemical substance,yeast gene YOL108C,1.1
same,level of expressed mRNA in the presence/in the absence of chemical substance,yeast gene YOL116W,1.0
same,The level of expressed mRNA in the presence of chemical substance/The level of expressed mRNA in the absence of chemical substance,yeast gene YOL126C,1.8
same,The level of expressed mRNA in the presence of chemical substance/The level of expressed mRNA in the absence of chemical substance,yeast gene YOL153C,2.4
same,level of expressed mRNA in the presence/in the absence of chemical substance,yeast gene YOL156W,1.1
same,The level of expressed mRNA in the presence of chemical substance/The level of expressed mRNA in the absence of chemical substance,yeast gene YOL165C,17.6
same,level of expressed mRNA in the presence/in the absence of chemical substance,yeast gene YOR002W,1.2
same,level of expressed mRNA in the presence/in the absence of chemical substance,yeast gene YOR085W,1.1
same,The level of expressed mRNA in the presence of chemical substance/The level of expressed mRNA in the absence of chemical substance,yeast gene YOR099W,1.2
same,level of expressed mRNA in the presence/in the absence of chemical substance,yeast gene YOR103C,1.0
same,level of expressed mRNA in the presence/in the absence of chemical substance,yeast gene YOR108W,1.4
same,level of expressed mRNA in the presence/in the absence of chemical substance,yeast gene YOR128C,0.8
same,The level of expressed mRNA in the presence of chemical substance/The level of expressed mRNA in the absence of chemical substance,yeast gene YOR130C,0.6
same,level of expressed mRNA in the presence/in the absence of chemical substance,yeast gene YOR142W,1.5
same,level of expressed mRNA in the presence/in the absence of chemical substance,yeast gene YOR176W,1.4
same,level of expressed mRNA in the presence/in the absence of chemical substance,yeast gene YOR178C,4.1
same,level of expressed mRNA in the presence/in the absence of chemical substance,yeast gene YOR251C,1.0
same,The level of expressed mRNA in the presence of chemical substance/The level of expressed mRNA in the absence of chemical substance,yeast gene YOR336W,1.4
same,The level of expressed mRNA in the presence of chemical substance/The level of expressed mRNA in the absence of chemical substance,yeast gene YOR347C,1.4
same,level of expressed mRNA in the presence/in the absence of chemical substance,yeast gene YOR348C,1.1
same,The level of expressed mRNA in the presence of chemical substance/The level of expressed mRNA in the absence of chemical substance,yeast gene YPL017C,0.4
same,level of expressed mRNA in the presence/in the absence of chemical substance,yeast gene YPL028W,1.2
same,level of expressed mRNA in the presence/in the absence of chemical substance,yeast gene YPL057C,1.6
same,level of expressed mRNA in the presence/in the absence of chemical substance,yeast gene YPL135W,1.3
same,level of expressed mRNA in the presence/in the absence of chemical substance,yeast gene YPL148C,3.5
same,The level of expressed mRNA in the presence of chemical substance/The level of expressed mRNA in the absence of chemical substance,yeast gene YPR026W,1.6
same,level of expressed mRNA in the presence/in the absence of chemical substance,yeast gene YPR113W,2.0
same,The level of expressed mRNA in the presence of chemical substance/The level of expressed mRNA in the absence of chemical substance,yeast gene YPR160W,4.4
same,level of expressed mRNA in the presence/in the absence of chemical substance,yeast gene YPR165W,1.0
same,The level of expressed mRNA in the presence of chemical substance/The level of expressed mRNA in the absence of chemical substance,yeast gene YPR167C,1.9
same,level of expressed mRNA in the presence/in the absence of chemical substance,yeast gene YPR183W,2.5
same,The level of expressed mRNA in the presence of chemical substance/The level of expressed mRNA in the absence of chemical substance,yeast gene YPR184W,3.6
